Reference: ChEMBL document CHEMBL1201862, “PubChem BioAssay data set” (2004)
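Cells were grown in 96-well plates and exposed to each compound for 48 hours at five concentrations; endpoints were interpolated linearly between bracketing concentrations, or set to the highest concentration if not reached. At the GI50, growth is halved.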 Activity calls are given as the source filed them. Cut-off read from the data, not from the text of the source: active = GI50 up to about 1.1 µM and inactive = higher.

Columns and labels:
Assay in all cases: inhibition of tumour cell growth, NCI panel, 48 h
K562 = test system: K562
CCRF-CEM = test system: CCRF-CEM
SK-MEL-5 = test system: SK-MEL-5
MDA-N = test system: MDA-N
MCF7 = test system: MCF7
SNB-19 = test system: SNB-19
COLO 205 = test system: COLO 205
SN12C = test system: SN12C
NCI-H23 = test system: NCI-H23
Hs-578T = test system: Hs-578T
SW-620 = test system: SW-620
LOX IMVI = test system: LOX IMVI
SR = test system: SR
U-251 = test system: U-251
SF-268 = test system: SF-268
UACC-257 = test system: UACC-257
CAKI-1 = test system: CAKI-1
OVCAR-4 = test system: OVCAR-4
HOP-92 = test system: HOP-92
RXF 393 = test system: RXF 393

Measured: GI50

c1nncn1C12C3C4C5C3C1C5C42 (configuration not stated)
inactive: K562 > 100 µM | CCRF-CEM > 100 µM | SK-MEL-5 > 100 µM | MDA-N > 100 µM | MCF7 > 100 µM | SNB-19 > 100 µM | COLO 205 > 100 µM | SN12C > 100 µM | NCI-H23 > 100 µM | Hs-578T > 100 µM | SW-620 > 100 µM | LOX IMVI > 100 µM | SR > 100 µM | U-251 > 100 µM | SF-268 > 100 µM | UACC-257 > 100 µM

O=C(Nc1cccc(F)c1)c1cc2ccc(O)cc2o/c1=N\c1cccc(F)c1
inactive: K562 2.38 µM | CCRF-CEM 2.22 µM | SK-MEL-5 3.6 µM | MDA-N 6.35 µM | MCF7 3.58 µM | SNB-19 8.97 µM | COLO 205 > 100 µM | SN12C 5.96 µM | NCI-H23 2.34 µM | Hs-578T 3.09 µM | SW-620 4.27 µM | LOX IMVI 3.27 µM | SR 4.5 µM | U-251 3.99 µM | SF-268 3.03 µM | UACC-257 9.68 µM | CAKI-1 15.3 µM | OVCAR-4 3.59 µM

CNCC(SC)c1ccc(O)c(O)c1 (configuration not stated)
inactive: HOP-92 20.4 µM | K562 23.7 µM | CCRF-CEM 2.67 µM | SK-MEL-5 52.8 µM | MDA-N 18.5 µM | MCF7 29.2 µM | SNB-19 > 100 µM | COLO 205 17.1 µM | SN12C 21.5 µM | NCI-H23 31 µM | Hs-578T 66.1 µM | SW-620 19.4 µM | LOX IMVI 24.7 µM | RXF 393 33.6 µM | U-251 61.1 µM | SF-268 38.1 µM | UACC-257 14.1 µM | CAKI-1 20.5 µM | OVCAR-4 17 µM

N#CC1=C(N)OC2=C(CCCc3ccc([N+](=O)[O-])cc32)C1c1ccc(Cl)cc1 (configuration not stated)
inactive: HOP-92 37 µM | K562 3.88 µM | CCRF-CEM 4.39 µM | SK-MEL-5 4.38 µM | MDA-N 6.7 µM | MCF7 4.03 µM | SNB-19 32.9 µM | COLO 205 5.35 µM | SN12C 2.74 µM | NCI-H23 5.11 µM | Hs-578T 17.1 µM | SW-620 9.35 µM | LOX IMVI 4.6 µM | RXF 393 4.68 µM | U-251 4.57 µM | SF-268 8.43 µM | UACC-257 6.08 µM | CAKI-1 4.11 µM | OVCAR-4 3.3 µM
